Test system: MDA‐MB‐231 cells
Assay: mRNA transfection with HK lipopolyplexes (HK peptide + DOTAP liposomes)
Type: cell-based
Details: HK 4 μg, mRNA 1 μg, DOTAP 1 μg; luciferase 24 h
Procedure: Transfection with HK lipopolyplexes was carried out in a manner similar to that described above, with a few exceptions. In brief, the HK peptide (4 μg) in Opti‐MEM was mixed initially with mRNA (1 μg) for 30 minutes. This was followed by adding the DOTAP cationic liposome (1,2‐dioleoyl‐3‐trimethyl ammonium‐propane; 1 μg; Roche, Basel, Switzerland) for an additional 30 minutes. The Opti‐MEM mixture (50 μl) was then added dropwise to the cells.
FIGURE 8 Comparison of mRNA transfection with DOTAP and several HK peptides. To form lipopolyplexes, the HK peptides (4 μg) in Opti‐MEM were initially mixed with mRNA (1 μg) for 30 minutes. DOTAP liposomes (1 μg) were then added, gently mixed and allowed to stand for an additional 30 min. Polyplexes were prepared as described previously. These complexes in Opti‐MEM (50 μl) were then added to the cells and, 24 hours later, the luciferase activity was measured. *p < 0.05; **p < 0.01; ***p < 0.001
Figure S4. Transfection of mRNA (1 µg) with HK peptides (4 µg) and/or DOTAP liposomes (1 µg). Cells were transfected with mRNA lipoplexes, polyplexes, or lipopolyplexes as described in the Material and Methods section, and twenty-four h later, the luciferase activity was measured. ***, P<0.001; ****, P<0.0001

In the case of “R = KHHHKHHHKHHHHKHHHK [H3K(+H)4b, four‐branched analogue of H3K4b with one extra histidine in the second ‐HHHK‐ motif]”, the “mRNA carrier effectiveness compared with DOTAP liposomes” value is reported as “significantly better carriers of mRNA than the DOTAP liposomes”.
